Assay results taken from patent US20040161399A1, “Use of nonimmunosuppressive [$g(g)-hydroxy-n-methyl-l-leucine4]cyclosporin derivatives for treating hair loss” (priority 2001, published 2004).
Starred links: 1 amine or outer side, 2 acyl side, 3 side chain; linkers in the order of their positions; H or OH if unused. Non-standard residues stand in square brackets, D forms with d. Residues, ends and D or L forms follow the SMILES beside them. AlaΨ(CSNH)dAla = C[C@H](N[*:1])C(=S)N[C@H](C)C(=O)[*:2]; MeBmt = C/C=C/C[C@@H](C)[C@@H](O)[C@H](NC)C(=O)O; NMeLeu(4-OH) = CN[C@@H](CC(C)(C)O)C(=O)O; NMeL = CN[C@@H](CC(C)C)C(=O)O; NMeV = CN[C@H](C(=O)O)C(C)C; dHiv = CC(C)[C@@H](O)C(=O)O; dNMeA = CN[C@H](C)C(=O)O; Abu = CC[C@H](N)C(=O)O; Sar = CNCC(=O)O

Columns and labels:
Female C57BL/6 mice = assay: Evaluation of hair restoring effect in mice (topical application to shaved back); assay type: in vivo; details: for Area rate of hair regrowth (%): C57BL/6 mice, hair-removed back, 100 μl of 0.1% w/v once a day for 30 days, visual examination; for hair restoring / hair growth promoting effect (in words): qualitative statement
Method: Evaluation of Hair Restoring Effect in Mice
Female C57BL/6 mice of ages 6 to 7 weeks were utilized. After removing hairs on the middle of the back with an electric shaver, the mice were weighed and randomly assigned to the test groups with an even distribution of weights. […] The results were determined by visual examination, in terms of degrees of hair regrowth. With respect to respective hair-removed areas, rates of new hair growth were examined and compared.

[1] = tested on: splenocytes (responder cells from BALB/c mice, stimulator cells from C57BL/6 mice); assay: Mixed Lymphocyte Reaction (MLR) method, 3H-thymidine incorporation; assay type: cell-based; details: qualitative statement
Method: Evaluation of Non-Immunosuppressive Activity In Vitro
Responder cells from BALB/c mice were mixed with an equal number of stimulator cells from C57BL/6 mice pre-treated with mitomycin. […] After 4 days of incubation, ^3H-thymidine was added to the mixtures and incubated for an additional 4 hours. Then, the amount of thymidine incorporated into the cells was measured (liquid scintillation counter), and IC50 (μg/ml) of respective cyclosporins were calculated.

| Compound | Area rate of hair regrowth (%) (Female C57BL/6 mice) | hair restoring / hair growth promoting effect (in words) (Female C57BL/6 mice) | immunosuppressive activity (in words) [1] |
| --- | --- | --- | --- |
| C/C=C/C[C@@H](C)[C@@H](O)[C@H]1C(=O)N[C@@H](CC)C(=O)N(C)CC(=O)N(C)[C@@H](CC(C)(C)O)C(=O)N[C@@H](C(C)C)C(=O)N(C)[C@@H](CC(C)C)C(=O)N[C@@H](C)C(=S)N[C@H](C)C(=O)N(C)[C@@H](CC(C)C)C(=O)N(C)[C@@H](CC(C)C)C(=O)N(C)[C@@H](C(C)C)C(=O)N1C [[γ-hydroxy-N-methyl-L-leucine^4][alaninethiomide^7, ^7ψ^8 CS—NH] cyclosporin A] (cyclo([MeBmt][Abu][Sar][NMeLeu(4-OH)]V[NMeL][AlaΨ(CSNH)dAla][NMeL][NMeL][NMeV])) | 91% | – | – |
| C/C=C/C[C@@H](C)[C@@H](O)[C@H]1C(=O)N[C@@H](CC)C(=O)N(C)[C@H](C)C(=O)N(C)[C@@H](CC(C)(C)O)C(=O)N[C@@H](C(C)C)C(=O)N(C)[C@@H](CC(C)C)C(=O)N[C@@H](C)C(=O)N[C@H](C)C(=O)N(C)[C@@H](CC(C)C)C(=O)N(C)[C@@H](CC(C)C)C(=O)N(C)[C@@H](C(C)C)C(=O)N1C [[N-methyl-D-alanine^3][γ-hydroxy-N-methyl-L-leucine^4] cyclosporin A] (cyclo([MeBmt][Abu][dNMeA][NMeLeu(4-OH)]V[NMeL]A[dA][NMeL][NMeL][NMeV])) | 95% | has a hair restoring effect | reduced |
| C/C=C/C[C@@H](C)[C@@H](O)[C@H]1C(=O)N[C@@H]([C@@H](C)O)C(=O)N(C)CC(=O)N(C)[C@@H](CC(C)(C)O)C(=O)N[C@@H](CC(C)C)C(=O)N(C)[C@@H](CC(C)C)C(=O)N[C@@H](C)C(=O)O[C@H](C(C)C)C(=O)N(C)[C@@H](CC(C)C)C(=O)N[C@@H](CC(C)C)C(=O)N(C)[C@@H](C(C)C)C(=O)N1C [[L-threonine^2][γ-hydroxy-N-methyl-L-leucine^4][L-leucine^5][D-2-hydroxyisovaleric acid^8][L-leucine^10] cyclosporin A] (cyclo([MeBmt]T[Sar][NMeLeu(4-OH)]L[NMeL]A[dHiv][NMeL]L[NMeV])) | 90% | – | – |
| [γ-hydroxy-N-methyl-L-leucine^4] cyclosporin A [reference compound] | – | has a hair restoring effect | no immunosuppressive activity |
